From patent US8697705B2, “Isoindolinone derivatives” (Hoffmann-La Roche Inc., priority 2011, dated 2014) come the findings set out here.

The target of assay [1] is T1, Recombinant human liver GK1 (GST-GK) (Homo sapiens, UniProt P35557).
T1 construct: made in house; host or cells: E. coli
T1 sequence (P35557 1-466 isoform P35557-2): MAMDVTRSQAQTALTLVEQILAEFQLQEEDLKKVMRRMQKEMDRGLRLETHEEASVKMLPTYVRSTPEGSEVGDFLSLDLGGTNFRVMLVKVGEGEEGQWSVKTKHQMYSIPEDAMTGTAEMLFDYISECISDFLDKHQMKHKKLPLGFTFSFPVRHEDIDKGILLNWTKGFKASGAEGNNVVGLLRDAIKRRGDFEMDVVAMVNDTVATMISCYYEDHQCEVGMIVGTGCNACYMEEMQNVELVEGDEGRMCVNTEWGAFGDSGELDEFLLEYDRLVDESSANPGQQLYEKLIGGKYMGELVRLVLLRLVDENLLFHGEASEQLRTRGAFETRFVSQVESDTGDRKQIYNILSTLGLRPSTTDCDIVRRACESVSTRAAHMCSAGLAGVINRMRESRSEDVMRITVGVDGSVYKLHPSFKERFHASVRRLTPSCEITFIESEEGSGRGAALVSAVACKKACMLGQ
The assay is described as follows: Glucokinase in vitro assay (G6PDH-coupled, NADH generation, OD340). It is filed as biochemical. Conditions: 30° C., 5 mM D-glucose, 10% dimethylsulfoxide. As to the method: Glucokinase In Vitro Assay Protocol:
Glucokinase (GK) was assayed by coupling the production of glucose-6-phosphate to the generation of NADH with glucose-6-phosphate dehydrogenase (G6PDH, 0.75-1 kunits/mg; Boehringer Mannheim, Indianapolis, Ind.) from Leuconostoc mesenteroides as the coupling enzyme (Scheme 2).
Recombinant human liver GK1 was expressed in E. coli as a glutathione S-transferase fusion protein (GST-GK) and was purified by chromatography over a glutathione-Sepharose 4B affinity column using the procedure provided by the manufacturer (Amersham Pharmacia Biotech, Piscataway, N.J.).
The assay was conducted at 30° C. in a flat bottom 96-well tissue culture plate from Costar (Cambridge, Mass.) with a final incubation volume of 120 μL. The incubation reaction contained the following: 25 mM Hepes buffer (pH 7.1), 25 mM KCl, 5 mM D-glucose, 1 mM ATP, 1.8 mM NAD, 2 mM MgCl2, 1 μM sorbitol-6-phosphate, 1 mM dithiothreitol, test drug or 10% dimethylsulfoxide, ˜7 units/ml G6PDH, and GK (see below). All organic reagents were >98% pure and were from Boehringer Mannheim with the exceptions of D-glucose and Hepes which were from Sigma Chemical Co, St Louis, Mo. Test compounds were dissolved in dimethylsulfoxide and were added to the incubation reaction minus GST-GK in a volume of 12 μL to yield a final dimethylsulfoxide concentration of 10%. This mix was pre-incubated in the temperature controlled chamber of a SPECTRAmax 250 microplate spectrophotometer (Molecular Devices Corporation, Sunnyvale, Calif.) for 10 minutes to allow temperature equilibrium and then the reaction was started by the addition of 20 μL GST-GK.
After addition of enzyme, the increase in optical density (OD) at 340 nm was monitored spectrophotometrically to determine the rate of change (OD340 per min). The GK activity (OD340/min) in control wells (10% dimethylsulfoxide minus GK activators) was compared with the activity in wells containing test GK activators, and the concentration of activator that produced a 50% increase in the activity of GK, i.e., the SC1.5, was calculated.

In the next assay the test system is C57BL/6J mice. Put plainly: Glucokinase activator in vivo screen: blood glucose lowering after oral gavage in mice. Conditions: Mus musculus, C57B6 mice, read-out: % gluc lowering @ 2 H; for change in vivo at 25 mg/kg: vs. control at 2 hours post 25 mg/kg oral dose. As for the experimental part: Glucokinase Activator In Vivo Screen Protocol in Lean Mice:
Lean C57BL/6J mice were orally dosed via gavage with Glucokinase (GK) activator following a two hour fasting period. Blood glucose determinations were made at various (e.g. 0, 1, 2, 4 and 8 hours post-oral gavage) times during the study.
C57Bl/6J mice were obtained from Jackson Laboratory (Bar Harbor, Me.) and were maintained in a light-dark cycle with lights on from 0600-1800 hr. For studies in lean mice, the mice were received at age ten weeks and given ad libitum access to control diet (LabDiet 5001 chow, PMI Nutrition, Brentwood, Mo.), and were at least age 11 weeks at the time of study. For studies in the DIO model, the mice were received at age five weeks and given ad libitum access to Bio-Sery F3282 High Fat Diet (Frenchtown, N.J.), and were at least age 16 weeks at the time of study. The experiments were conducted during the light phase of the light-dark cycle. Mice (n=6) are weighed and fasted for a two hour period prior to oral treatment. GK activators are formulated in Gelucire vehicle (Ethanol:Gelucire44/14:PEG400q.s. 4:66:30 v/w/v). For studies in lean mice, the mice were dosed orally with 5.0 μL per gram of body weight (i.e. 5 ml/kg×10.0 mg/ml formulation to equal a 50 mg/kg dose). For studies in DIO mice, the mice were dosed orally with 5.0 μL per gram of body weight (i.e. 5.0 ml/kg×5 mg/ml formulation to equal a 25 mg/kg dose). Immediately prior to dosing, a pre-dose (time zero) blood glucose reading was acquired by snipping off a small portion of the animal's tail and collecting 15 μL blood into a heparinized capillary tube for analysis. Following GK activator administration, additional blood glucose readings were taken at various time points post dose from the same tail wound. Results were interpreted by comparing the mean blood glucose values of vehicle treated mice with GK activator treated mice over the study period.
Table 2 below provides data for % glucose lowering of a representative number of compounds of the present invention vs. control at 2 hours post 25 or 50 mg/kg dose in C57B6 mice: […]

As for `O=C(Nc1ccn(C[C@H](O)CO)n1)[C@H](CC1CCCC1)N1Cc2c(cccc2C(F)(F)F)C1=O` [Example 6, (S)-3-Cyclopentyl-N-[1-((S)-2,3-dihydroxy-propyl)-1H-pyrazol-3-yl]-2-(1-oxo-4-trifluoromethyl-1,3-dihydro-isoindol-2-yl)-propionamide], the “SC1.5 (concentration of activator that produced a 50% increase in the activity of GK)” value in assay [1] is 0.119 µM. Also, in the assay on C57BL/6J mice, the change in vivo at 25 mg/kg was -48.3%.

`COC(C)(C)Cn1ccc(NC(=O)[C@H](CC2CCCC2)N2Cc3c(cccc3C(F)(F)F)C2=O)n1` [Example 7, (S)-3-Cyclopentyl-N-[1-(2-methoxy-2-methyl-propyl)-1H-pyrazol-3-yl]-2-(1-oxo-4-trifluoromethyl-1,3-dihydro-isoindol-2-yl)-propionamide]: in assay [1], the “SC1.5 (concentration of activator that produced a 50% increase in the activity of GK)” value was found to be 0.032 µM. In addition, the change in vivo at 25 mg/kg with C57BL/6J mice was -48.2%.

For `COCCn1ccc(NC(=O)[C@H](CC2CCCC2)N2Cc3c(cccc3C(F)(F)F)C2=O)n1` [Example 13, (S)-3-Cyclopentyl-N-[1-(2-methoxy-ethyl)-1H-pyrazol-3-yl]-2-(1-oxo-4-trifluoromethyl-1,3-dihydro-isoindol-2-yl)-propionamide], the “SC1.5 (concentration of activator that produced a 50% increase in the activity of GK)” value in assay [1] worked out at 0.328 µM. The change in vivo at 50 mg/kg in the assay with C57BL/6J mice (vs. control at 2 hours post 50 mg/kg oral dose) was -45.2%.

Consider `O=C(Nc1cnccn1)[C@H](CC1CCCC1)N1Cc2c(cccc2C(F)(F)F)C1=O` [Example 15, (S)-3-Cyclopentyl-2-(1-oxo-4-trifluoromethyl-1,3-dihydro-isoindol-2-yl)-N-pyrazin-2-yl-propionamide], for which, in assay [1], the “SC1.5 (concentration of activator that produced a 50% increase in the activity of GK)” value is 0.176 µM. For the same compound, in the assay on C57BL/6J mice, the change in vivo at 25 mg/kg is -22.5%.

With `CC(C)OCCn1ccc(NC(=O)[C@H](CC2CCCC2)N2Cc3c(cccc3C(F)(F)F)C2=O)n1` [Example 17, (S)-3-Cyclopentyl-N-[1-(2-isopropoy-ethyl)-1H-pyrazol-3-yl]-2-(1-oxo-4-trifluoromethyl-1,3-dihydro-isoindol-2-yl)-propionamide], in assay [1], the “SC1.5 (concentration of activator that produced a 50% increase in the activity of GK)” value was found to be 0.179 µM. Besides, the change in vivo at 25 mg/kg with C57BL/6J mice was -40.2%.

For `COCCn1ccc(NC(=O)[C@H](CC2CCCCC2)N2Cc3c(F)cccc3C2=O)n1` [Example 18, (S)-3-Cyclohexyl-2-(4-fluoro-1-oxo-1,3-dihydro-isoindol-2-yl)-N-[1-(2-methoxy-ethyl)-1H-pyrazol-3-yl]-propionamide], the “SC1.5 (concentration of activator that produced a 50% increase in the activity of GK)” value in assay [1] stood at 0.962 µM. Besides, the change in vivo at 25 mg/kg in the assay on C57BL/6J mice is -25.4%.

As for `O=C(Nc1cnc([C@H](O)CO)cn1)[C@H](CC1CCCC1)N1Cc2c(cccc2C(F)(F)F)C1=O` [Example 21, (S)-3-Cyclopentyl-N-[5-((S)-1,2-dihydroxy-ethyl)-pyrazin-2-yl]-2-(1-oxo-4-trifluoromethyl-1,3-dihydro-isoindol-2-yl)-propionamide], in assay [1], the “SC1.5 (concentration of activator that produced a 50% increase in the activity of GK)” value was 0.255 µM. Further, the change in vivo at 25 mg/kg in the assay with C57BL/6J mice was -36.6%.
